Assay results from US9801373B2, “Compounds for alleviating phosphate starvation symptoms in plants” (Commissariat a l'Energie Atomique et aux Energies …, priority 2012, dated 2017).
“And” between values parts separate entries of the source, which are not always exact repeats. Identical values can stand only once.

Key:
[1] = test system: phospholipids / glycolipids; assay: Lipid composition of aerial part; format: in vivo, Arabidopsis thaliana
Procedure: Lipids and anthocyanins were analyzed as previously described by Jouhet (2003) and Ticconi (2001).

[2] = test system: genes regulated by Pi starvation; assay: Global transcriptomic analysis (CATMA) of roots; format: in vivo, Arabidopsis thaliana
Procedure: (§1) Plant RNA was extracted with the RNeasy kit (QIAGEN, France). For transcriptome data, RNA were analysed by the CATMA technology (Complete Arabidopsis Transcriptome Microarray). For qPCR, poly(dT) cDNA were prepared from 500 ng total RNA with Superscript III reverse transcriptase (Invitrogen, France) and analysed on a LightCycler 480 apparatus (Roche Diagnostics, France) with the SYBR Green I Master kit (Roche Diagnostics, France) according to the manufacturer's instructions. Targets were quantified with specific primer pairs designed with Primer3 website (http://frodo.wi.mit.edu/primer3/) (see Table II below). Biological triplicates were performed for all experiments. Expression levels were normalized using At2g16600, At3g04120, At1g35160 and At1g32050 genes.
To investigate on a wider scale the putative Phosphatin1 effect, a transcriptional analysis of the global genome was performed using the CATMA technology (http://www.catma.org/, URGV, France). It was compared transcript expression in roots of 14-days-old plantlets, grown in −Pi, −Pi+PTN1 or +Pi.
Table III: Comparison of PTN1 treatment and phosphate supply on global transcriptomic analysis. For this analysis, 14-days-old WT root samples of plants grown on −Pi, −Pi+PTN1 (40 μM) and +Pi were used. Data are expressed as ratio values between +Pi and −Pi or −Pi+PTN1 and −Pi respectively.

PHT1;4 expression = assay: Chemical genetics screen, GUS staining of pht1;4-1 reporter line; format: in vivo, Arabidopsis thaliana; conditions: 25 μM, 5 days on −Pi
Text: A “chemical genetics” approach has been carried out to isolate compounds that inhibit the phosphate (Pi) response in Arabidopsis thaliana. Compounds were screened for their ability to inhibit the expression of a phosphate starvation marker, namely the high affinity Pi transporter PHT1,4 gene. For the screening, the A. thaliana pht1;4-1 line (ecotype Wassilewskija) was chosen (Misson et al., 2004). It contains a T-DNA construct inserted into Pht1;4 gene creating a transcriptional fusion with a GUS reporter gene. For phenotypic analyses, A. thaliana Columbia and various lines derived from this ecotype were used. They are either transgenic lines expressing reporter gene as cycB1::GUS (Colón Carmona et al., 1999), MGD3::LUC, PHT1;4::LUC, At1g73010::LUC or various mutants affecting root response to low Pi such as: pdr2 (Ticconi et al., 2004), lpr1, lpr2 (Svistoonoff et al., 2007), lpi1, lpi2 and lpi3 (Sanchez-Calderon et al., 2006).
For the screening, the LATCA collection of 3600 biologically active compounds (Zhao et al., 2007) was used at a final concentration of 25 μM in 1% DMSO. Four to five Arabidopsis seeds of pht1;4-1 (Misson et al., 2004) reporter line were sown in 96-well plates containing 100 μL liquid MS/10 medium with 500 μM of Pi at pH 5.7. After 2 days at 4° C., plants were grown for five days in a culture chamber under a 16 h light/8 h dark regime (24/21° C., 150 μE m^−2s^−1). Medium was then replaced by MS/10 with only 5 μM Pi and the tested compounds were added to the 96-well plates. […] Five days later, plantlets were analysed by GUS staining to assay the activity of the reporter gene inserted in pht1;4 gene. […] Then, plates were analysed using a MZ16 stereomicroscope (Leica microsystems, Germany).
The GUS activity was detected as previously described by Jefferson et al. (1987), using a GUS staining solution containing 50 mM sodium phosphate buffer pH 7.0; 0.01% Triton X-100, 1 mM K3Fe(CN)6, 1 mM K4Fe(CN)6, 1 mg/ml 5-bromo-4-chloro-3-indolyl B-D-glucuronide (X-Gluc). […]

[3] = test system: PAP12, PAP17 and PAP22 genes; assay: Expression of acid phosphatase (PAP) genes; format: in vivo, Arabidopsis thaliana; conditions: −Pi
Procedure: as §1

wild-type (WT) seedlings = assay: Primary root growth of wild-type seedlings; format: in vivo, Arabidopsis thaliana
Procedure: In the Pi deficient medium, NaCl (0.5 mM) was used to replace the equivalent amount of sodium provided by NaH2PO4. For controls of the effects of the compounds, 1% of DMSO (Dimethyl sulfoxid, SIGMA, 472301), solvent for the tested compounds, was added. After 2 days at 4° C., the plates were placed in a vertical position and plants were grown in a culture chamber under a 16 h light/8 h dark regime (24/21° C., 150 μE m^−2s^−1). For 4 weeks culture, large plates (24×24 cm) were placed in a horizontal position. Root architecture and aerial part area were quantified using program ImageJ.

[4] = Optical density curves of PTN1 with FeCl2; format: physicochemical; conditions: PTN1 40 μM + FeCl2 10 μM, FIG. 9 (A)
[5] = −Pi medium containing PTN1, FIG. 5 (B)
[6] = 14-days-old roots, −Pi+PTN1 40 μM vs −Pi
[7] = gene classes of Thibaud et al. (2010)

O=c1c(Sc2ccc(Cl)cc2)c(Sc2ccc(Cl)cc2)c1=O [PTN1]
reduction of DGDG content ([1]; Pi-starved plants, aerial part, 10-day-old, FIG. 5 (C)): 27%
glycolipids share in ratio of phospholipids onto glycolipids [1, 5]: 75%
phospholipids share in ratio of phospholipids onto glycolipids [1, 5]: 25%
PC and PE content ([1]; −Pi seedlings, FIG. 5 (C)): partially reverted the effect of −Pi
genes de-regulated in an opposite way compared with +Pi treatment ([2]; 40 μM, 14-days-old roots): around 4%
number of the 279 genes induced +Pi/−Pi also induced by PTN1 ([2]; 40 μM, 14-days-old roots): 115 genes
number of the 279 genes induced +Pi/−Pi repressed by PTN1 ([2]; 40 μM, 14-days-old roots): 11 genes
number of the 783 genes repressed +Pi/−Pi also repressed by PTN1 ([2]; 40 μM, 14-days-old roots): 316 genes
number of the 783 genes repressed +Pi/−Pi induced by PTN1 ([2]; 40 μM, 14-days-old roots): 30 genes
percentage of the 279 genes induced +Pi/−Pi also induced by PTN1 ([2]; 40 μM, 14-days-old roots): 41% and 41.2%
percentage of the 279 genes induced +Pi/−Pi repressed by PTN1 ([2]; 40 μM, 14-days-old roots): 3.9%
percentage of the 783 genes repressed +Pi/−Pi also repressed by PTN1 ([2]; 40 μM, 14-days-old roots): 40% and 40.3%
percentage of the 783 genes repressed +Pi/−Pi induced by PTN1 ([2]; 40 μM, 14-days-old roots): 3.8%
number of genes induced vs −Pi [2, 6]: 1001 genes
number of genes repressed vs −Pi [2, 6]: 1666 genes
number of genes modulated vs −Pi ([2]; 14-days-old roots, −Pi+PTN1 40 μM vs −Pi, more than two fold change, Bonferroni <0.05): 2667 genes
local genes repressed by Pi also repressed by PTN1 [2, 7]: 45%
systemic genes induced by Pi also regulated by PTN1 in the same direction [2, 7]: 55%
systemic genes repressed by Pi also regulated by PTN1 in the same direction [2, 7]: 65%
expression of PHT1;5 and PHT1;8 ([2]; transcriptomic analysis): down regulation
expression of lipid conversion genes including PLDζ2 and MGD3 ([2]; transcriptomic analysis): down regulated
toxicity as cause of reduced reporter gene expression (PHT1;4 expression): not explained by toxicity
expression level of PAP12, PAP17 and PAP22 genes [3]: reduced the expression level
primary root growth at various external Pi concentrations (15-250 uM) (wild-type (WT) seedlings; 10 uM, 5 days on Pi rich medium then 24 hours on tested conditions, FIG. 7 (D)): improved root growth until 50/75 μM of Pi
primary root growth on −Pi (wild-type (WT) seedlings; WT, 7-day-old plantlets, FIG. 7 (A)): promote the primary root growth in a dose dependent manner
concentration of maximum effect on primary root growth and PHT1;4 inhibition (wild-type (WT) seedlings; −Pi): 40 µM
absorption spectrum of solution containing PTN1 and Fe2+ [4]: identical to the PTN1 control without FeCl2
